Measured values from patent publication US6881739B1, “Use of cortisol antagonists in the treatment of heart failure” (priority 1999, dated 2005).

Tested on: heart failure
Assay: Treatment of heart failure patients with ketoconazole (case observations, Examples 1 and 2)
Type: in vivo, human
Method: Also, moderate dyspnea and increased heart rate as well as an increase in liver size (indicative of fluid retention in the liver). Patient being treated for heart failure with lisinopril (Zestril®) Treatment: 400 mg of a racemate of the Cis-2S,4R and Cis-2R,4S isomers of ketoconazole (Fungoral™ tablets—Janssen-Cilag, Belgium) was administered at 10.00 pm every day for a 3 month period. Observations: Body weight reduced by 3.8 kg—attributable to a reduction in fluid retention. Heart rate fell from 72 beats/min to 62 beats/min. Reduction in liver size of 10% and a resulting reduction in liver transaminases • S-ASAT reduced from 0.44 to 0.30 μKat/L • S-ALAT reduced from 1.0 to 0.39 μKat/L Dyspnea, oedema of lower limbs and body fluid in the lungs reduced. Physical health as measured by a subnormal physical exercise test (Faggiano, P. et al. supra) improved by 15%.
Patient being treated for heart failure with furosemid (40 mg/day)
Treatment: As for Example 1.

[1] = Subject 1, 400 mg daily for 3 months
[2] = Subject 2, treatment as for Example 1

SMILES: CC(=O)N1CCN(c2ccc(OCC3COC(Cn4ccnc4)(c4ccc(Cl)cc4Cl)O3)cc2)CC1 (racemic) [ketoconazole]
- Body weight reduced by (Subject 1 (on lisinopril), 400 mg at 10.00 pm every day for 3 months, attributable to reduced fluid retention): 3.8 kg
- Dose of co-administered lisinopril (Zestril) could be reduced [1]: half of original dose
- Dyspnea, oedema of lower limbs and body fluid in the lungs [1]: reduced
- Physical health as measured by a subnormal physical exercise test, improved by [1]: 15%
- Reduction in liver size [1]: 10%
- Heart rate after treatment (Subject 1, 400 mg daily for 3 months, fell from 72 beats/min): 62 beats/min
- S-ASAT after treatment (Subject 1, 400 mg daily for 3 months, reduced from 0.44): 0.30 μKat/L
- S-ALAT after treatment (Subject 1, 400 mg daily for 3 months, reduced from 1.0): 0.39 μKat/L
- Body weight reduced by (Subject 2 (on furosemid 40 mg/day), treatment as for Example 1): 4.2 kg
- Dyspnea, oedema of lower limbs and body fluid in lungs [2]: reduced
- Physical health as measured by a subnormal physical exercise test, improved by [2]: 20%
- Reduction in liver size [2]: 15%
- Time from commencement of treatment until furosemid could be stopped [2]: ≤ 6 weeks
- Heart rate after treatment (Subject 2, treatment as for Example 1, fell from 74 beats/min): 60 beats/min
- S-ASAT after treatment (Subject 2, treatment as for Example 1, reduced from 0.58): 0.32 μKat/L
- S-ALAT after treatment (Subject 2, treatment as for Example 1, reduced from 0.92): 0.68 μKat/L
